Test results taken from ChEMBL document CHEMBL1201862, “PubChem BioAssay data set” (2004).
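Five concentrations, 48 hours, 96-well plates. GI50 is the concentration that inhibits growth by half.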 Active and inactive are the calls of the source. Cut-off read from the data, not from the text of the source: active = GI50 up to about 1.1 µM and inactive = higher.

What was measured:
Test in all cases: DTP human tumour cell line panel, 48 h
[1] = tested on: SNB-19
[2] = tested on: SF-539
[3] = tested on: SF-295
[4] = tested on: RXF 393
[5] = tested on: LOX IMVI
[6] = tested on: CCRF-CEM
[7] = tested on: OVCAR-3
[8] = tested on: COLO 205
[9] = tested on: U-251
[10] = tested on: SW-620
[11] = tested on: IGROV-1
[12] = tested on: 786-0
[13] = tested on: KM12
[14] = tested on: UO-31
[15] = tested on: SK-MEL-5
[16] = tested on: NCI-H23
[17] = tested on: DU-145
[18] = tested on: K562
[19] = tested on: Hs-578T

| Compound | GI50 [1] | GI50 [2] | GI50 [3] | GI50 [4] | GI50 [5] | GI50 [6] | GI50 [7] | GI50 [8] | GI50 [9] | GI50 [10] | GI50 [11] | GI50 [12] | GI50 [13] | GI50 [14] | GI50 [15] | GI50 [16] | GI50 [17] | GI50 [18] | GI50 [19] |
| --- | --- | --- | --- | --- | --- | --- | --- | --- | --- | --- | --- | --- | --- | --- | --- | --- | --- | --- | --- |
| C=CCc1cccc(C(=O)/C=C(O)/C=C/c2ccccc2Cl)c1O | 21 µM (inactive) | 7.43 µM (inactive) | 9.27 µM (inactive) | 19.5 µM (inactive) | 7.01 µM (inactive) | 6.82 µM (inactive) | 16.6 µM (inactive) | 25.1 µM (inactive) | 5.66 µM (inactive) | 8.43 µM (inactive) | 0.352 µM (active) | 10.4 µM (inactive) | 17.2 µM (inactive) | 9.18 µM (inactive) | 7.16 µM (inactive) | 6.12 µM (inactive) | 15.1 µM (inactive) | 2.11 µM (inactive) | – |
| CNC1c2ccccc2C(=O)c2cc3c(cc21)OCCOCCOCCOCCO3 (stereo unspecified) | > 100 µM (inactive) | > 100 µM (inactive) | > 100 µM (inactive) | – | – | 17.1 µM (inactive) | – | > 100 µM (inactive) | > 100 µM (inactive) | 81.3 µM (inactive) | > 100 µM (inactive) | > 100 µM (inactive) | > 100 µM (inactive) | > 100 µM (inactive) | > 100 µM (inactive) | – | – | 45.1 µM (inactive) | > 100 µM (inactive) |
| O=C(O)C1CCCCN1C(=O)Cc1c[nH]c2ccccc12 (stereo unspecified) | > 100 µM (inactive) | > 100 µM (inactive) | > 100 µM (inactive) | > 100 µM (inactive) | > 100 µM (inactive) | > 100 µM (inactive) | > 100 µM (inactive) | > 100 µM (inactive) | > 100 µM (inactive) | > 100 µM (inactive) | > 100 µM (inactive) | > 100 µM (inactive) | > 100 µM (inactive) | – | – | > 100 µM (inactive) | > 100 µM (inactive) | > 100 µM (inactive) | – |
| COc1cc(/C=C/C(=O)OC[C@]23O[C@H]2[C@@H](OC2OC(C)C(O)C(O)C2O)C2C=CO[C@@H](OC4OC(CO)C(O)C(O)C4O)C23)ccc1O (stereo partly specified) | > 100 µM (inactive) | – | > 100 µM (inactive) | – | > 100 µM (inactive) | – | > 100 µM (inactive) | > 100 µM (inactive) | > 100 µM (inactive) | > 100 µM (inactive) | > 100 µM (inactive) | > 100 µM (inactive) | > 100 µM (inactive) | > 100 µM (inactive) | > 100 µM (inactive) | > 100 µM (inactive) | > 100 µM (inactive) | > 100 µM (inactive) | > 100 µM (inactive) |
| O=C(CSc1nnc(Cc2ccccc2)o1)Nc1ccc(Cl)cc1[N+](=O)[O-] | 14.4 µM (inactive) | – | 18.7 µM (inactive) | 19.2 µM (inactive) | 13.1 µM (inactive) | 15.6 µM (inactive) | – | 21.9 µM (inactive) | 19.5 µM (inactive) | 25.1 µM (inactive) | – | 16.5 µM (inactive) | > 10 µM (inactive) | 18.4 µM (inactive) | 16.9 µM (inactive) | 17.4 µM (inactive) | – | 25.6 µM (inactive) | – |
| O=C(NCCN1CCCCC1)c1cccc(I)c1 | > 100 µM (inactive) | > 100 µM (inactive) | – | > 100 µM (inactive) | > 100 µM (inactive) | > 100 µM (inactive) | > 100 µM (inactive) | – | > 100 µM (inactive) | > 100 µM (inactive) | > 100 µM (inactive) | > 100 µM (inactive) | > 100 µM (inactive) | > 100 µM (inactive) | > 100 µM (inactive) | > 100 µM (inactive) | – | > 100 µM (inactive) | > 100 µM (inactive) |
| CC(=O)N/N=C1/CC[C@@]2(C)C(=CC[C@H]3C4CCC(C(C)CCCC(C)C)[C@@]4(C)CCC32)C1(C)C (stereo partly specified) | 75.3 µM (inactive) | – | 22.3 µM (inactive) | – | 3.94 µM (inactive) | 13.8 µM (inactive) | 74.8 µM (inactive) | 32.9 µM (inactive) | 75.5 µM (inactive) | 53.3 µM (inactive) | 57.4 µM (inactive) | 43.7 µM (inactive) | 46.3 µM (inactive) | 82 µM (inactive) | 37.4 µM (inactive) | 70 µM (inactive) | > 100 µM (inactive) | 15.9 µM (inactive) | > 100 µM (inactive) |
